In one series the test system is human sperm. Kind of series: Dose-dependent effect of niclosamide on sperm motility in fresh human semen. In kind it is cell-based. The method, then:
FIG. 1 is a graph depicting the dose dependent effect of niclosamide dissolved in DMSO, on sperm motility. Fresh human semen samples were mixed with the different concentrations of niclosamide in vitro, followed by analysis of sperm motility within 2 minutes. The x-axis depicts the different concentrations of niclosamide mixed with the semen sample. The x-axis, from Left to Right: the gray bar depicts an untreated semen sample, the blue bar depicts a vehicle control, and the eight pink bars depict the increasing concentrations of niclosamide tested. […] The y-axis depicts the percentage (%) inhibition in sperm motility of each semen sample treated with a concentration of niclosamide o normalized to the sperm motility of a control sample. Change in sperm motility relative to control treated sample is shown as mean +/−standard error of the mean (S.E.M.) for the aggregate of individual experiments.
Sperm motility is a functional measurement of the sperm themselves. Sperm may be sampled directly from semen or from washed sperm samples, and assessed for motility either manually or by CASA (Computer Assisted Sperm Analysis) (Chapter 59—Male Reproductive System. Systems Toxicologic Pathology. Dianne M. Creasy, Robert E. Chapin, in Haschek and Rousseaux's Handbook of Toxicologic Pathology (Third Edition), 2013; Amann R P et al. Computer-assisted sperm analysis (CASA): capabilities and potential developments. Theriogenology. 2014 Jan. 1; 81(1):5-17).
Sperm motility (expressed as %) may be evaluated in duplicate within 1 h of semen collection, by counting moving and nonmoving sperm in several microscopic fields. […] In preferred embodiments, only complete spermatozoa (head with tail) are included in such counts. Slow-moving sperm (class B+C) can be easily and accurately counted compared with rapidly moving (class A) sperm. A multi-button tally, preferably a digital one, is used to differentially count such motility (for additional detail, see Chapter 23: Standardized semen analysis and quality control management for multicenter male reproductive toxicology clinical trials, Sikka S. C. et al., in Bioenvironmental Issues Affecting Men's Reproductive and Sexual Health, 2018, the contents of which are incorporated herein by reference in their entirety).
After 2 minutes of incubation with the formulation, the semen samples were collected and analyzed for sperm motility. […] Data were collected within 2 minutes after mixing the formulation in gel form, with fresh semen, so the effects are instantaneous. As for timing, the gel may be applied 15-20 minutes prior to intercourse to allow gelling to fully occur. Furthermore, the gel may not be efficacious after residing in the vagina for longer than 1 hour.

Series [1] is classed as physicochemical. The method, then: Saturation solubility of niclosamide was studied in the solvents, to know the highest concentration of niclosamide that can be solubilized, as depicted in table 6.
Heating and stirring improved solubilization of niclosamide in polyethylene glycol. […] In further formulation studies, drug substance concentration >7% w/w was desired, so 65° C. of temperature was used for solubilization of API.

The nature of series [2]: Drug-excipient compatibility study (related substances of binary mixtures). It counts as physicochemical. The method, then: Proposed drug to excipient ratio was selected based on the function of the excipient and maximum concentration to be used. Drug and excipient binary mixtures were prepared by uniform mixing. The blends were packed in clear glass vials and the compatibility was evaluated in closed conditions. In the closed-vial study, the dry mix samples were filled in vials with screw stopper fitting covered with parafilm and stored at 40° C./75% RH, 25° C./60% RH and 2° C.-8° C. storage condition up to 4 weeks. Samples at 40° C./75% RH and 25° C./60% RH were checked for physical description and analyzed for related substances, initially, at 2 weeks and at 4 weeks. Ratio of drug substance to excipients in blend for the compatibility study, are as follows: a) niclosamide:gelling agents/mucoadhesive agents was 1:15; b) niclosamide:solvents/co-solvents was 1:5; c) niclosamide:pH adjusting agents/neutralizing agents was 1:1; and d) niclosamide: preservatives/anti-oxidants was 1:0.5. Summary of physical description and related substances analysis of binary mixtures of API & excipients at initial and 40° C./75% RH-4 weeks condition are presented below in Table 8.
The impurities detected were as follows: Impurity-1 (5-chloro salicylic acid); Impurity-2 (2-chloro-4-nitro aniline); Impurity-3 (N-(2-chloro-4-nitrophenyl)-2-hydroxybenzamide); Impurity-4 (3,5-dichloro-N-(2-chloro-4-nitrophenyl)-2-hydroxybenzamide); and Impurity-5 (3-chloro-N-(2-chloro-4-nitrophenyl)-2-hydroxybenzamide).

The next series relates to SARS-CoV-2. Description: microbe, parasite or virus in culture. It counts as cell-based. To be noted: Severe acute respiratory syndrome coronavirus 2, Vero C1008; Vero E6 cells; reporter SARS-CoV-2 MOI of 0.1; luciferase at 24 h post-infection; 0.5% DMSO; read-out: antiviral EC50.
A short description of the next series: physchem. To be noted: 25 °C, water.
Series [3] is described as follows: Saturation solubility in buffers (shake flask method). To be noted: 0.1 N HCl, 0.01 N HCl, pH 3.0 and 4.0 acid phthalate buffer, pH 4.5 and 5.1 acetate buffer.
Where [4] appears, read: 40° C./75% RH, 4 Weeks, closed vial.

SMILES strings stand for the structures. Values after ≈ are worked out from the molar mass of the structure shown. Like-named read-outs stand apart in the source and are kept apart here.

Consider one compound from patent US20230040597A1, “USE OF NICOLSAMIDE FORMULATIONS FOR ANTIVIRAL THERAPY” (priority 2020, published 2023).

For orientation: inhibition means the drop in the measured response relative to a control, in per cent. Broadly, the EC50 is the concentration needed to bring the measured effect to its halfway point. The term Solubility denotes how much of the substance goes into solution per volume.

For the compound `O=C(Nc1ccc([N+](=O)[O-])cc1Cl)c1cc(Cl)ccc1O` [niclosamide], in the series with human sperm, the “Minimum dose to see effect (inhibits sperm motility)” value was found to be 4 mM. In addition, the “Minimum dose to see effect (inhibits sperm motility), Amount (w/w)” value in the series on human sperm is 0.13%. Further, in the series with human sperm (Sperm, 2 min, 10 mM niclosamide, fresh human semen, within 2 minutes, relative to control, read-out: percentage (%) inhibition in sperm motility), the inhibition at 10000 µM was found to be 100%. For the same compound, the “Concentration giving complete inhibition of sperm motility” value in the series on human sperm (semen sample vs control sample, 2 minutes incubation) is recorded as at least 10 mM. Moreover, the maximum solubility in series [1] is recorded as 5 % w/w. The Imp-3 in series [2] (setting [4]) is listed as 0.026%; in series [2] (Initial) it was 0.029%. Moreover, the Imp-4 in series [2] (setting [4]) is given as 0.012%; in series [2] (Initial) it was 0.009%. The Imp-5 in series [2] (setting [4]) was 0.014%. For the same compound, the “Single Max Unk Imp” value in series [2] (setting [4]) is given as 0.007%; in series [2] (Initial) it was 0.010%. Besides, the entries for the “Total Impurities” value in series [2] (setting [4]) and in series [2] (Initial) were 0.06% and 0.05%, respectively. Further, the EC50 with SARS-CoV-2 was determined as 0.15 µM. For the same compound, the Solubility entry by setting is: (pH 1.2) “Nil”; (pH 2) “Nil”; (pH 3) “Nil”; (pH 4) “Nil”; (pH 4.5) “Nil”; (pH 5.1) “Nil”. Moreover, the Solubility in “physchem” was 5 µg/mL (≈ 15.3 µM). Besides, the “solubility in studied buffers” value in series [3] is reported as “insoluble”.
